The numbers were not newly measured in patent US9592004B2, “Methods and systems for managing epilepsy and other neurological disorders” (CYBERONICS, INC., priority 2005, dated 2017), which cites them from elsewhere.

Where two headings read alike, the source gives them in different places.

One series has as its system seizure. Particulars: intranasal.
Experiment in series [1]: not given
This is another data set of the same source.

For series [2], the system named is dopaminergic and serotonergic neurotransmission. Particulars: in vivo microdialysis.
For the next series, the system named is sodium channels. Particulars: in vitro.
A further series concerns T-type Ca^2+ currents. Particulars: in vitro.
For a further series, the system named is rat hippocampal slices. Particulars: 10-30 μg/mL.
Another series has as its system partial seizures. Particulars: controlled trials, adjunctive therapy, adults, oral.
Series [3] deals with cultured mouse spinal cord neurons. Particulars: 10-30 μg/mL.
Series [4] concerns GABA/benzodiazepine receptor ionophore complex. Particulars: in vitro; does not produce changes in chloride flux.
The mark [5] stands for this setting: long term therapy, per daily dose of 1 mg/kg of primidone.

As for `Cc1ncc2n1-c1ccc(Cl)cc1C(c1ccccc1F)=NC2` [Midazolam, midazolam], the “time to terminate a seizure” value in the series on seizure was 30 s.

Consider `O=C1NC(=O)C(c2ccccc2)(c2ccccc2)N1` [Phenytoin, diphenylhydantoin], for which the “concentration at which toxic effects such as nystagmus develop” value is “around 20 μg/ml”. In addition, the “concentration giving chronic control of seizures” value in the series on seizures is “above 10 μg/ml”.

On to `CCC1(C)CC(=O)NC1=O` (stereo not shown) [ethosuximide, Ethosuximide], for which, in series [1] (long-term therapy, per daily dose of 1 mg/kg), the average plasma concentration entry is on record as “about 2 μg/ml”.

For the compound `CCC1(c2ccccc2)C(=O)NC(=O)NC1=O` [phenobarbital, Phenobarbital], the average plasma concentration entry in series [1] (long term therapy in adults, per daily dose of 1 mg/kg) is “about 10 μg/ml”; in [1] (setting [5]), “about 2 μg/ml”.

Turning to `CCC1(c2ccccc2)C(=O)NCNC1=O` [primidone, Primidone], in series [1] (setting [5]), the average plasma concentration entry is “about 1 μg/ml”.

As for `NS(=O)(=O)Cc1noc2ccccc12` [zonisamide, 1,2-benzisoxazole-3-methanesulfonamide], in [2], the “effect on dopaminergic and serotonergic neurotransmission” value is “facilitates both dopaminergic and serotonergic neurotransmission”. Besides, in the series with sodium channels, the “effect on sodium channels” value was “blocks sodium channels”. Besides, the “effect on T-type Ca2+ currents” value in the series on T-type Ca^2+ currents was “reduces voltage-dependent, transient inward currents”. Further, the “effect on neuronal or glial uptake of [3H]-GABA” value in the series with rat hippocampal slices is reported as “without affecting”. Further, in the series on partial seizures, the effective doses was 100 to 600 mg/day. Moreover, the “effect on synaptically-driven electrical activity” value in series [3] was “suppresses synaptically-driven electrical activity”. The “effect on postsynaptic GABA or glutamate responses” value in [3] (cultured mouse spinal cord neurons) is on record as “without affecting postsynaptic GABA or glutamate responses”. For the same compound, the “binding to GABA/benzodiazepine receptor ionophore complex” value in series [4] is given as “binds to the GABA/benzodiazepine receptor ionophore complex in an allosteric fashion”. The “carbonic anhydrase inhibiting activity” value with carbonic anhydrase is listed as “weak carbonic anhydrase inhibiting activity”.
